According to patent US7022319B1, “Vectors carrying therapeutic genes encoding antimicrobial peptides for gene therapy” (GSF - Forschungszentrum fuer Umwelt und Gesundheit GmbH, priority 1995, dated 2006):

How the values were obtained:
bacteria = conditions: cited from earlier work
[1] = system: variety of tumour cell lines; conditions: cited from earlier work
mammalian cells = conditions: cited from earlier work
MMTV LTR = assay: MMTV LTR-luciferase reporter supertransfected into cells carrying PreProCecropin or PreProMelittin; format: cell-based, Mouse Mammary Tumour Virus; conditions: two different MMTV LTRs; gene under control of an MLV promoter; FIGS. 13A-13B
Text: A similar experiment to that of FIGS. 11 and 12 can be seen in FIGS. 13A–13B whereby two different MMTV LTR's controlling the expression of a luciferase reporter gene (Wintersberger et al., Proc. Natl. Acad. Sci. USA, 92:2745–2749) were separately supertransfected into cells carrying either PreProCecropin or PreProMelittin under control of an MLV promoter.

[2] = system: human bladder carcinoma derived cell line, EJ; assay: Tumorigenicity in nude mice of EJ cell clones carrying melittin or cecropin expression constructs; format: in vivo; conditions: EJ cell clones carrying the gene, injected into nude mice; FIGS. 9A-9G and 10A-10F
Text: EJ cells were transfected with p125.CercA and the clones expressing neomycin resistance were isolated. Six clones were isolated: Cecropin A1.4, Cecropin A1.7, Cecropin A1.8, Cecropin A10.3, Cecropin A10.4, and Cecropin A10.8.
Similarly Ej cells were transfected with pBAGpMel and pBagppMel and the clones expressing neomycin resistance were isolated. Three clones containing the premelittin gene were isolated: Pre Melittin 1, Pre Melittin 4, and Pre Melittin 6. Two clones containing prepromelittin were isolated: Pre Pro Melittin 1, and Pre Pro Melittin 5.
The human bladder carcinoma derived cell line, EJ, gives tumours upon injection into immuno compromised nude mice which grow progressively larger (FIGS. 9A–9G). The stable clones of Ej cells carrying the melittin or cecropin expression constructs obtained as described above were tested for their tumorigenicity in nude ice.

HIV LTR = assay: HIV LTR-luciferase reporter (HIV-luc) supertransfected into EJ derived cell clones, with or without Tat; format: cell-based; conditions: in the presence of Tat, FIGS. 11 and 12
Text: EJ derived cell clones carrying the melittin or cecropin expression vector or the parental. BAG vector, not carrying a therapeutic gene, were supertransfected with an indicator construct carrying the HIV LTR (and thus the HIV promoter) linked to a firefly luciferase reporter gene (HIV-luc) in the absence or presence of a separate construct expressing Tat. In the absence of Tat there was little luciferase activity detectable from the HIV-luc construct in all cell clones as expected since the HIV promoter requires Tat for its activity. […] Thus the production of HIV from infected cells will be inhibited by the antimicrobial peptide gene carrying therapeutic-retroviral vector. This effect is expected to lead to a lack of virus production from HIV infected cells.

cancer = conditions: purified peptide given to cells in culture; cited from earlier work
HIV = conditions: purified peptide given to cells in culture; cited from earlier work

Compound: Cecropin B
- antibacterial activity (bacteria): specific antibacterial activity
- anticancer activity against tumour cell lines [1]: anticancer activity
- ill effects for mammalian cells (mammalian cells): without any apparent ill effects

Compound: Cecropin A
- antibacterial activity (bacteria): specific antibacterial activity
- ill effects for mammalian cells (mammalian cells): without any apparent ill effects

Compound: cecropin
- effect on expression from MMTV LTR luciferase reporter (MMTV LTR): downregulatory effect
- rate of tumour growth in mice [2]: reduced rate of tumour growth
- luciferase expression from HIV-luc (HIV LTR): little luciferase expression

Compound: CC[C@H](C)[C@H](NC(=O)CN)C(=O)NCC(=O)N[C@@H](C)C(=O)N[C@H](C(=O)N[C@@H](CC(C)C)C(=O)N[C@@H](CCCCN)C(=O)N[C@H](C(=O)N[C@@H](CC(C)C)C(=O)N[C@H](C(=O)N[C@H](C(=O)NCC(=O)N[C@@H](CC(C)C)C(=O)N1CCC[C@H]1C(=O)N[C@@H](C)C(=O)N[C@@H](CC(C)C)C(=O)N[C@H](C(=O)N[C@@H](CO)C(=O)N[C@@H](Cc1c[nH]c2ccccc12)C(=O)N[C@H](C(=O)N[C@@H](CCCCN)C(=O)N[C@@H](CCCNC(=N)N)C(=O)N[C@@H](CCCCN)C(=O)N[C@@H](CCCNC(=N)N)C(=O)N[C@@H](CCC(N)=O)C(=O)N[C@@H](CCC(N)=O)C(N)=O)[C@@H](C)CC)[C@@H](C)CC)[C@@H](C)O)[C@@H](C)O)C(C)C)C(C)C [melittin]
- anti-cancer activity (cancer): selective anti-cancer
- anti-HIV activity (HIV): anti-HIV activity
